Experimental data taken from US7550458B2, “Tricycloundecane compounds useful as modulators of nuclear hormone receptor function” (Bristol-Myers Squibb Company, priority 2005, dated 2009).
Read-outs that look alike come from different tables or passages of the source.

What was measured:
[1] = target: T1, AR (Rattus norvegicus, UniProt P15207); conditions: castrated rats, dosing for 3 days
T1 sequence (P15207 1-902): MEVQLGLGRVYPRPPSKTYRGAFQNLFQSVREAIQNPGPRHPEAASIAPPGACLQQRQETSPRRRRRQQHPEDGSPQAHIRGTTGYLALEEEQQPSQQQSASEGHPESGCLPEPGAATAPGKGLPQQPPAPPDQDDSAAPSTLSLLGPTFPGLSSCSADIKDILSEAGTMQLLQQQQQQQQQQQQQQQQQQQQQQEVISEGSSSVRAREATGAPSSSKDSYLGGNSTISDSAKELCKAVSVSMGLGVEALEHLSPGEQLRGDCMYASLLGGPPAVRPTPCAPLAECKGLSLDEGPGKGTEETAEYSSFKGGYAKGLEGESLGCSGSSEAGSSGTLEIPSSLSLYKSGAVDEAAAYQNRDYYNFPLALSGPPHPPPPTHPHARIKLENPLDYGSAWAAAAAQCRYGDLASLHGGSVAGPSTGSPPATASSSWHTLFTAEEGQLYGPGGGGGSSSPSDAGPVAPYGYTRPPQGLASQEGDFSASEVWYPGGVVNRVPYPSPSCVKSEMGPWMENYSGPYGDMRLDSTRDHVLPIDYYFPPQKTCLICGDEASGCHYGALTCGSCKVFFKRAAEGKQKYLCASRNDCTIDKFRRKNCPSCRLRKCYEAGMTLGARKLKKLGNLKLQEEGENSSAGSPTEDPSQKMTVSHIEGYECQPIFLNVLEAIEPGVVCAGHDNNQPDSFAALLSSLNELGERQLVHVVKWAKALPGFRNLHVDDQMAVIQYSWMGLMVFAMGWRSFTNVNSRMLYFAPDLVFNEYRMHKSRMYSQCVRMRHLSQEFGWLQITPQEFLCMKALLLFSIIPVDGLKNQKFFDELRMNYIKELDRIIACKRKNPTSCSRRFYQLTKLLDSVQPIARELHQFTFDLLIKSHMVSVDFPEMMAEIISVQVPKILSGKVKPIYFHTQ

[2] = target: T1, AR
[3] = tested on: wild type AR; test: AR whole cell binding assay, saturation analysis, MDA 453 cells; set-up: species or system human; conditions: read-out: Kd for [^3H]-DHT, Scatchard analysis
[4] = target: glucocorticoid receptor (Homo sapiens, UniProt P04150); conditions: at a concentration of ≦10 μM, A549 cells
Chain of glucocorticoid receptor (P04150 whole entry): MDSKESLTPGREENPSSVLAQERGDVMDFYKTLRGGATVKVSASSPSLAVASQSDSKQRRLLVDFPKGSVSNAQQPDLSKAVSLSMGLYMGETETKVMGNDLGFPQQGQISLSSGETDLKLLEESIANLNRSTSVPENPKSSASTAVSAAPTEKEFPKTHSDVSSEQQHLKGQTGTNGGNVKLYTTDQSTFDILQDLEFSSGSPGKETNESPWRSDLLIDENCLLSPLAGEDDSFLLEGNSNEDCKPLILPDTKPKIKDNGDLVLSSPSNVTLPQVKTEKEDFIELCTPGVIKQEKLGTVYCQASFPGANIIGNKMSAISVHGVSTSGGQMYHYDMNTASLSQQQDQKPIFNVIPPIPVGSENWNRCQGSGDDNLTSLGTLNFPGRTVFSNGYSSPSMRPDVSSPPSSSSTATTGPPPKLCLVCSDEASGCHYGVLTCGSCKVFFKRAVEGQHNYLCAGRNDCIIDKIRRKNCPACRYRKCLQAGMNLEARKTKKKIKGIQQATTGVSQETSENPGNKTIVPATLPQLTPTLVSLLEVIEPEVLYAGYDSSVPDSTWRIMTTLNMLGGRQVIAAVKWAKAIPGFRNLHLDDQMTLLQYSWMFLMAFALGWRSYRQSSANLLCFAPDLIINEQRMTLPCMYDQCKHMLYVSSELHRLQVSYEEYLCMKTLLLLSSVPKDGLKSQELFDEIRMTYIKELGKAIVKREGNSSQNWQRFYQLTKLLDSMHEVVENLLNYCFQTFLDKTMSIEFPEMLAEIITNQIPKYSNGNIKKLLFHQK
Experimental: Cells are plated the day before the assay at approximately 40000 cells/well. […] Activity is measured by analysis in a luminometer as compared to control experiments treated with buffer or dexamethasome.

SMILES: CCC(=O)O[C@H]1CC[C@H]2[C@@H]3CCC4=CC(=O)CC[C@]4(C)[C@H]3CC[C@]12C [TP, testosterone propionate]
- EC50 (increase in organ weight) [1]: ~0.03 mg
- ED80 of TP ([2]; immature castrated rat model): 0.1 mg
- EC50 (increase in organ weight) ([2]; immature castrated rats, dosing for 3 days): ~0.03 mg

SMILES: C[C@@H]1C[C@H]2[C@@H]3CCC4=CC(=O)C=C[C@]4(C)[C@@]3(F)[C@@H](O)C[C@]2(C)[C@@]1(O)C(=O)CO [dexamethasone]
- suppression of activity (% inhibition of the reporter system vs buffer control with 10 ng/ml PMA) [4]: ~65%
